Read-outs that look alike come from different tables or passages of the source.
Key:
[1] = molecular target: T1, WRN helicase (aa N517-P1238) (Homo sapiens, UniProt Q14191); assay: WRN ATPase assay (DNA dependent ATP hydrolysis, ADP-Glo); type: biochemical; details: 3 hours pre-incubation, 300 micromolar ATP, FLAP26 DNA; geometric mean of at least 2
T1 construct: The core helicase motif of the WRN protein (aa N517-P1238) was produced for this assay; His (N); ZZ (N); 3C protease cleavage site (N); made in house; host or cells: Sf21 insect cells (baculovirus; virus and BIICs made in SF9)
In short: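 DNA-dependent ATP hydrolysis detected as ADP by ADP-Glo luminescence, using 300 μM ATP, 0.2 nM FLAP26 substrate and 10 nM WRN aa N517-P1238 (Tris pH 7.5 buffer, 2 mM MgCl2, 50 mM NaCl). IC50s fitted from normalized duplicate half-log dilutions; reported as geometric means of at least 2 replicates.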

DLD1-WRN-KO cells = assay: Proliferation assay DLD1-WRN-KO (CellTiterGlo, off-target effects); type: cell-based; details: 96 hours, geometric mean of at least 2
In short: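 DLD1 cells with CRISPR knockout of WRN were exposed overnight-seeded to eight 3-fold compound dilutions (0.1% DMSO) for 96 h at 37 °C. Viability was read as ATP by CellTiterGlo luminescence against a day-0 plate, giving GI50 and residual viability at top concentration.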

SW48 cells = assay: Proliferation assay SW48 (CellTiterGlo); type: cell-based; details: SW48 colon carcinoma cells, 96 hours, CellTiterGlo, geometric mean of at least 2, read-out: Proliferation Assay SW48 GI50
In short: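 SW48 cells, 2,000/well, treated after overnight seeding with eight 3-fold compound dilutions (0.1% DMSO) for 96 hours at 37° C. Viability read as ATP by CellTiterGlo luminescence, normalised to a day-0 plate and vehicle to give % growth; GI50 is geometric mean of ≥2 independent replicates.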

T1 sequence (Q14191 517-1238): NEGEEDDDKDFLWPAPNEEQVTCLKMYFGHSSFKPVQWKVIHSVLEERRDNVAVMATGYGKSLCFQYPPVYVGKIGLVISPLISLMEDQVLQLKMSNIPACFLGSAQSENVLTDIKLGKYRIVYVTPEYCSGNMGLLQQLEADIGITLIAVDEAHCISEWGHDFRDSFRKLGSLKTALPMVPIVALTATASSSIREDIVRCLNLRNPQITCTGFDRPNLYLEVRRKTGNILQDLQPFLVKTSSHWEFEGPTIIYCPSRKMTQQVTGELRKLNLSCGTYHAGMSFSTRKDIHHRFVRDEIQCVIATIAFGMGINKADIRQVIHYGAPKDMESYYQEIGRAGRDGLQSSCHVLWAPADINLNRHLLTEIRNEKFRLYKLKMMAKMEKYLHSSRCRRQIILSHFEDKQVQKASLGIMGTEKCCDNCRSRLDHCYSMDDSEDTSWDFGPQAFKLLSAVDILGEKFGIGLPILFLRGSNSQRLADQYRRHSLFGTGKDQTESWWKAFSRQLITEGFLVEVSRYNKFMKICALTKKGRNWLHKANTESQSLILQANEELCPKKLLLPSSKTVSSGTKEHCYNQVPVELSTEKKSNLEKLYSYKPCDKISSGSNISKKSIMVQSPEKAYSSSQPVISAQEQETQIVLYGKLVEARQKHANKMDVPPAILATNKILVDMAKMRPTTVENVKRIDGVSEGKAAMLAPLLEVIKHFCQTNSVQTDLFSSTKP

| IC50 [1] [nM] | GI50 (DLD1-WRN-KO cells) [nM] | GI50 (SW48 cells; Homo sapiens, SW48, 96 h) [nM] | GI50 (SW48 cells) [nM] | SMILES |
| --- | --- | --- | --- | --- |
| 100 | 10000 | 3000 |  | CC(=O)N1CCN(c2c(C)n(CC(=O)Nc3ccc(Cl)cc3)c3nc(-c4ccccc4)nn3c2=O)CC1 [Example 3, 2-(6-(4-acetylpiperazin-1-yl)-5-methyl-7-oxo-2-phenyl-[1,2,4]triazolo[1,5-a]pyrimidin-4(7H)-yl)-N-(4-chlorophenyl)acetamide] |
| 600 | > 10000 | 3000 |  | CC(=O)N1CCN(c2c(C)n(CC(=O)Nc3cc(C)c(C(F)(F)F)cc3Cl)c3nc(C4=CCOCC4)nn3c2=O)CC1 [Example 89, 2-(6-(4-acetylpiperazin-1-yl)-2-(3,6-dihydro-2H-pyran-4-yl)-5-methyl-7-oxo-[1,2,4]triazolo[1,5-a]pyrimidin-4(7H)-yl)-N-(2-chloro-5-methyl-4-(trifluoromethyl)phenyl)acetamide] |
| 100 | > 10000 | > 10000 |  | Cc1c(N2CCN(C(=O)c3cncc(F)c3O)CC2)c(=O)n2nc(C3=CCOCC3)nc2n1CC(=O)Nc1ccc(C(F)(F)F)cc1 [Example 22, 2-(2-(3,6-dihydro-2H-pyran-4-yl)-6-(4-(5-fluoro-4-hydroxynicotinoyl)piperazin-1-yl)-5-methyl-7-oxo-[1,2,4]triazolo[1,5-a]pyrimidin-4(7H)-yl)-N-(4-(trifluoromethyl)phenyl)acetamide] |
| 90 | > 10000 | 4000 |  | Cc1c(C2CCN(C(=O)c3ccc(F)c(F)c3O)CC2)c(=O)n2nc(N3CCOCC3)nc2n1CC(=O)Nc1ccc(C(F)(F)F)cc1 [Example 146, 2-(6-(1-(3,4-difluoro-2-hydroxybenzoyl)piperidin-4-yl)-5-methyl-2-morpholino-7-oxo-[1,2,4]triazolo[1,5-a]pyrimidin-4(7H)-yl)-N-(4-(trifluoromethyl)phenyl)acetamide] |
| 100 | > 10000 | 2000 |  | Cc1c(N2CCN(C(=O)Nc3nccs3)CC2)c(=O)n2nc(C3=CCOCC3)nc2n1CC(=O)Nc1ccc(C(F)(F)F)cc1 [Example 29, 4-(2-(3,6-dihydro-2H-pyran-4-yl)-5-methyl-7-oxo-4-(2-oxo-2-((4-(trifluoromethyl)phenyl)amino)ethyl)-4,7-dihydro-[1,2,4]triazolo[1,5-a]pyrimidin-6-yl)-N-(thiazol-2-yl)piperazine-1-carboxamide] |
| 100 | > 10000 | 800 |  | CCc1c(N2CCN(C(C)=O)CC2)c(=O)n2nc(C3=CCC(OC)CC3)nc2n1CC(=O)Nc1ccc(C(F)(F)F)cc1 (stereo not drawn) [Example 55, 2-(6-(4-acetylpiperazin-1-yl)-5-ethyl-2-(4-methoxycyclohex-1-en-1-yl)-7-oxo-[1,2,4]triazolo[1,5-a]pyrimidin-4(7H)-yl)-N-(4-(trifluoromethyl)phenyl)acetamide] |
| 10 | > 10000 | 800 |  | CCc1c(N2CCN(C(=O)c3nn(C)c(=O)[nH]3)CC2)c(=O)n2nc(C3=CCCC3)nc2n1CC(=O)Nc1ccc(C(F)(F)F)cc1 [Example 12, 2-(2-(cyclopent-1-en-1-yl)-5-ethyl-6-(4-(1-methyl-5-oxo-4,5-dihydro-1H-1,2,4-triazole-3-carbonyl)piperazin-1-yl)-7-oxo-[1,2,4]triazolo[1,5-a]pyrimidin-4(7H)-yl)-N-(4-(trifluoromethyl)phenyl)acetamide] |
| 500 | > 10000 | > 10000 |  | Cc1c(N2CCN(C(=O)c3cnccc3O)CC2)c(=O)n2nc(N3CCOCC3)nc2n1CC(=O)Nc1ccc(C(F)(F)F)cc1 [Example 152, 2-(5-methyl-2-morpholino-7-oxo-6-(4-(4-oxo-1,4-dihydropyridine-3-carbonyl)piperazin-1-yl)-[1,2,4]triazolo[1,5-a]pyrimidin-4(7H)-yl)-N-(4-(trifluoromethyl)phenyl)acetamide] |
| 400 | > 10000 |  | 4000 | CCc1c(N2CCN(C(=O)C3CCOC3)CC2)c(=O)n2nc(C3=CCCCO3)nc2n1CC(=O)Nc1ccc(C(F)(F)F)cc1 (stereo not drawn) [Example 61, 2-(2-(3,4-dihydro-2H-pyran-6-yl)-5-ethyl-7-oxo-6-(4-(tetrahydrofuran-3-carbonyl)piperazin-1-yl)-[1,2,4]triazolo[1,5-a]pyrimidin-4(7H)-yl)-N-(4-(trifluoromethyl)phenyl)acetamide] |
| 50 | > 10000 | > 10000 |  | Cc1c(N2CCN(C(=O)c3cc(C#N)n[nH]3)CC2)c(=O)n2nc(C3=CCOCC3)nc2n1CC(=O)Nc1ccc(C(F)(F)F)cc1 [Example 164, 2-(6-(4-(3-cyano-1H-pyrazole-5-carbonyl)piperazin-1-yl)-2-(3,6-dihydro-2H-pyran-4-yl)-5-methyl-7-oxo-[1,2,4]triazolo[1,5-a]pyrimidin-4(7H)-yl)-N-(4-(trifluoromethyl)phenyl)acetamide] |
| 60 | > 10000 | 200 |  | CCc1c(N2CCN(C(=O)c3c(O)ccc4ncccc34)CC2)c(=O)n2nc(C3=CCOCC3)nc2n1CC(=O)Nc1ccc(C(F)(F)F)cc1C [Example 18, 2-(2-(3,6-dihydro-2H-pyran-4-yl)-5-ethyl-6-(4-(6-hydroxyquinoline-5-carbonyl)piperazin-1-yl)-7-oxo-[1,2,4]triazolo[1,5-a]pyrimidin-4(7H)-yl)-N-(2-methyl-4-(trifluoromethyl)phenyl)acetamide] |
| 90 | > 10000 | 200 |  | CCc1c(N2CCN(C(=O)c3c(O)ccc4nccn34)CC2)c(=O)n2nc(C3=CCOCC3)nc2n1CC(=O)Nc1ccc(C(F)(F)F)cc1Cl [Example 46, N-(2-chloro-4-(trifluoromethyl)phenyl)-2-(2-(3,6-dihydro-2H-pyran-4-yl)-5-ethyl-6-(4-(6-hydroxyimidazo[1,2-a]pyridine-5-carbonyl)piperazin-1-yl)-7-oxo-[1,2,4]triazolo[1,5-a]pyrimidin-4(7H)-yl)acetamide] |
| 400 | > 10000 | 8000 |  | CC(=O)N1CCC(c2c(C)n(CC(=O)Nc3ccc(C(F)(F)F)cc3)c3nc(C4=CCOCC4)nn3c2=O)CC1 [Example 141, 2-(6-(1-acetylpiperidin-4-yl)-2-(3,6-dihydro-2H-pyran-4-yl)-5-methyl-7-oxo-[1,2,4]triazolo[1,5-a]pyrimidin-4(7H)-yl)-N-(4-(trifluoromethyl)phenyl)acetamide] |
| 200 | > 10000 | 300 |  | CCc1c(N2CCN(C(=O)c3ccnc(C)c3O)CC2)c(=O)n2nc(C3=CCCCO3)nc2n1CC(=O)Nc1ccc(C(F)(F)F)cc1Cl [Example 23, N-(2-chloro-4-(trifluoromethyl)phenyl)-2-(2-(3,4-dihydro-2H-pyran-6-yl)-5-ethyl-6-(4-(3-hydroxy-2-methylisonicotinoyl)piperazin-1-yl)-7-oxo-[1,2,4]triazolo[1,5-a]pyrimidin-4(7H)-yl)acetamide] |
| 500 | > 10000 | 3000 |  | CCc1c(N2CCN(C(C)=O)CC2)c(=O)n2nc(C3=CCOCC3)nc2n1CC(=O)Nc1ccc(C(F)(F)F)cc1F [Example 88, 2-(6-(4-acetylpiperazin-1-yl)-2-(3,6-dihydro-2H-pyran-4-yl)-5-ethyl-7-oxo-[1,2,4]triazolo[1,5-a]pyrimidin-4(7H)-yl)-N-(2-fluoro-4-(trifluoromethyl)phenyl)acetamide] |
| 200 | > 10000 | 3000 |  | Cc1c(N2CCN(C(=O)c3cc(F)ccc3N)CC2)c(=O)n2nc(C3=CCOCC3)nc2n1CC(=O)Nc1ccc(C(F)(F)F)cc1 [Example 157, 2-(6-(4-(2-amino-5-fluorobenzoyl)piperazin-1-yl)-2-(3,6-dihydro-2H-pyran-4-yl)-5-methyl-7-oxo-[1,2,4]triazolo[1,5-a]pyrimidin-4(7H)-yl)-N-(4-(trifluoromethyl)phenyl)acetamide] |
| 90 | > 10000 | 900 |  | CCc1c(N2CCN(C(=O)c3ccnc(C)c3O)CC2)c(=O)n2nc(C3=CCOCC3)nc2n1CC(=O)Nc1ccc(C(F)(F)F)cc1C [Example 47, 2-(2-(3,6-dihydro-2H-pyran-4-yl)-5-ethyl-6-(4-(3-hydroxy-2-methylisonicotinoyl)piperazin-1-yl)-7-oxo-[1,2,4]triazolo[1,5-a]pyrimidin-4(7H)-yl)-N-(2-methyl-4-(trifluoromethyl)phenyl)acetamide] |
| 300 | > 10000 | > 10000 |  | Cc1ccnc(O)c1C(=O)N1CCN(c2c(C)n(CC(=O)Nc3ccc(C(F)(F)F)cc3)c3nc(C4=CCOCC4)nn3c2=O)CC1 [Example 27, 2-(2-(3,6-dihydro-2H-pyran-4-yl)-6-(4-(2-hydroxy-4-methylnicotinoyl)piperazin-1-yl)-5-methyl-7-oxo-[1,2,4]triazolo[1,5-a]pyrimidin-4(7H)-yl)-N-(4-(trifluoromethyl)phenyl)acetamide] |

Reference: patent publication US20260250289A1, “BICYCLIC HETEROCYCLES AND THEIR USE AS WRN INHIBITORS” (Novartis AG, priority 2022, published 2026)
